Patent US8067454B2, “Thio-substituted Anthra [1, 2-d] imidazole- 6, 11-dione derivatives, preparation method and application thereof” (National Defense Medical Center, priority 2010, dated 2011)

Assays:
SVG p12 = assay: MTT assay, SVG p12 normal cell; settings: for Cell survival rate (%) SVG p12: concentration 10 μM, normal cell
GBM8401 = assay: MTT assay, GBM8401 tumor cell; settings: for Cell survival rate (%) GBM8401: concentration 10 μM, tumor cell; for inhibitory effect against tumor cell GBM8401: survival rate less than 80%
[1] = tested on: SVG p12, GBM8401 and GBM8901; assay: MTT assay, normal cell versus tumor cells (categories 39-3 to 39-7); settings: tumor cell survival rate less than 80%; for category 39-5: survival rate higher than 80% for normal cell SVG p12 and only inhibits growth of tumor cell GBM8901: FIG. 5C; for category 39-3: survival rate higher than 80% for normal cell SVG p12 and inhibits growth of both tumor cells GBM8401 and GBM8901: FIG. 5A
GBM8901 = assay: MTT assay, GBM8901 tumor cell; settings: for Cell survival rate (%) GBM8901: concentration 10 μM, tumor cell
[2] = tested on: telomerase (total cell lysates of lung cancer cell line H1299); assay: Telomeric Repeat Amplification Protocol (TRAP) assay, screen of telomerase inhibitors; assay type: biochemical, human; settings: 10 μM
Protocol: Telomeric Repeat Amplification Protocol (TRAP) Assay:
Telomerase activity was detected by a modified version of the general TRAP protocol. Telomerase products were resolved by 10% polyacrylamide gel electrophoresis and visualized by staining with SYBER Green. As a source of telomerase, the total cell lysates derived from lung cancer cell line H1299 cells were used. Protein concentration of the lysates was assayed using Bio-Rad protein assay kit using BSA standards.
In the TRAP assay, if a compound can stabilize the G-quadruplex structure such that telomerase can not act on telomere, then the effect of inhibiting the telomerase can be achieved. In the FIG. 2A to FIG. 2C, DMSO treatment represents as the positive control group (P); while a negative control group (N) used 5 μl of 0.1 mg/ml RNase A (CLONTECH) in the assay. It could be observed that a number of telomeric fragments were detected in the positive control group (P), while none was detected in the negative control group (N). 10 μM was selected as the concentration used to screen compounds.

Row | Structure (SMILES) | Cell survival rate (%) SVG p12 (SVG p12) [%] | Cell survival rate (%) GBM8401 (GBM8401) [%] | category 39-5: survival rate higher than 80% for normal cell SVG p12 and only inhibits growth of tumor cell GBM8901 [1] | Cell survival rate (%) GBM8901 (GBM8901) [%] | category 39-3: survival rate higher than 80% for normal cell SVG p12 and inhibits growth of both tumor cells GBM8401 and GBM8901 [1] | inhibitory effect against tumor cell GBM8401 (GBM8401) | without cell toxicity for normal cell SVGP p12 (SVG p12; survival rate higher than 80%) | category 39-4: survival rate higher than 80% for normal cell SVG p12 and only inhibits growth of tumor cell GBM8401 ([1]; FIG. 5B) | inhibitory effect against tumor cell GBM8901 (GBM8901; survival rate less than 80%) | inhibition effect against telomerase [2]
1 | CCCCSc1nc2ccc3c(c2[nH]1)C(=O)c1ccccc1C3=O [f1-3, 2-(Butylthio)-1H-anthra[1,2-d]imidazole-6,11-dione] | 98 ± 7 | 78 ± 16 | in this category | 10 ± 4 |  |  |  |  |  | 
2 | O=C(Sc1nc2ccc3c(c2[nH]1)C(=O)c1ccccc1C3=O)c1cc(C(F)(F)F)ccc1C(F)(F)F [f2-5, S-6,11-dioxo-6,11-dihydro-1H-anthra[1,2-d]imidazol-2-yl 2,5-bis(trifluoromethyl)benzothioate] | 82 ± 1 | 40 ± 13 |  | 68 ± 6 | in this category |  |  |  |  | 
3 | O=C1c2ccccc2C(=O)c2c1ccc1nc(SCCN3CCOCC3)[nH]c21 [f1-13, 2-(2-morpholinoethylthio)-1H-anthra[1,2-d]imidazole-6,11-dione] | 62 ± 8 | 38 ± 9 |  | 68 ± 2 |  |  |  |  |  | 
4 | Cc1ccccc1CSc1nc2ccc3c(c2[nH]1)C(=O)c1ccccc1C3=O [f1-4, 2-(2-Methylbenzylthio)-1H-anthra[1,2-d]imidazole-6,11-dione] | 58 ± 5 | 25 ± 10 |  | 18 ± 8 |  |  |  |  |  | 
5 | O=C1c2ccccc2C(=O)c2c1ccc1nc(SCCCCCCCl)[nH]c21 [f1-10, 2-(6-Chlorohexylthio)-1H-anthra[1,2-d]imidazole-6,11-dione] | 81 ± 1 | 78 ± 5 |  | 60 ± 2 | in this category |  |  |  |  | 
6 | O=C(CCc1ccccc1)Sc1nc2ccc3c(c2[nH]1)C(=O)c1ccccc1C3=O [f2-4, S-6,11-dioxo-6,11-dihydro-1H-anthra[1,2-d]imidazol-2-yl 3-phenylpropanethioate] | 61 ± 2 | 62 ± 15 |  | 72 ± 6 |  |  |  |  |  | 
7 | O=C1c2ccccc2C(=O)c2c1ccc1nc(SCC(=O)N3CCOCC3)[nH]c21 [f1-16, 2-(2-morpholino-2-oxoethylthio)-1H-anthra[1,2-d]imidazole-6,11-dione] | 60 ± 1 | 30 ± 9 |  | 39 ± 2 |  |  |  |  |  | 
8 | O=C1c2ccccc2C(=O)c2c1ccc1nc(SC(=O)N3CCCC3)[nH]c21 [f2-7, S-6,11-dioxo-6,11-dihydro-1H-anthra[1,2-d]imidazol-2-yl pyrrolidine-1-carbothioate] | 62 ± 5 | 72 ± 18 |  | 42 ± 7 |  | exhibited inhibitory effect against tumor cell GBM8401 |  |  |  | 
9 | O=C1c2ccccc2C(=O)c2c1ccc1nc(SCCC(=O)N3CCOCC3)[nH]c21 [f1-17, 2-(3-morpholino-3-oxopropylthio)-1H-anthra[1,2-d]imidazole-6,11-dione] | 80 ± 0 | 23 ± 10 |  | 48 ± 1 |  |  | without cell toxicity for normal cell SVGP p12 | in this category |  | 
10 | O=C1c2ccccc2C(=O)c2c1ccc1nc(SCCCN3CCCCC3)[nH]c21 [f1-14, 2-(3-(piperidin-1-yl)propylthio)-1H-anthra[1,2-d]imidazole-6,11-dione] | 12 ± 1 | 6 ± 10 |  | 10 ± 2 |  |  |  |  |  | 
11 | C#CCSc1nc2ccc3c(c2[nH]1)C(=O)c1ccccc1C3=O [f1-7, 2-(prop-2-ynylthio)-1H-anthra[1,2-d]imidazole-6,11-dione] | 98 ± 2 | 38 ± 10 | in this category | 7 ± 2 |  |  |  |  |  | 
12 | O=C1c2ccccc2C(=O)c2c1ccc1nc(SCCCCCl)[nH]c21 [f1-8, 2-(4-Chlorobutylthio)-1H-anthra[1,2-d]imidazole-6,11-dione] | 66 ± 3 | 43 ± 10 |  | 65 ± 10 |  |  |  |  |  | 
13 | CCN(CC)C(=O)Sc1nc2ccc3c(c2[nH]1)C(=O)c1ccccc1C3=O [f2-9, S-6,11-dioxo-6,11-dihydro-1H-anthra[1,2-d]imidazol-2-yl diethylcarbamothioate] | 90 ± 8 | 46 ± 13 |  | 50 ± 0 | in this category | exhibited inhibitory effect against tumor cell GBM8401 |  |  | exhibited inhibitory effect against tumor cell GBM8901 | 
14 | CN1CCN(C(=O)Sc2nc3ccc4c(c3[nH]2)C(=O)c2ccccc2C4=O)CC1 [f2-3, S-6,11-dioxo-6,11-dihydro-1H-anthra[1,2-d]imidazol-2-yl 4-methylpiperazine-1-carbothioate] | 62 ± 3 | 62 ± 11 |  | 38 ± 2 |  |  |  |  |  | exhibited inhibition effect against telomerase
15 | CCCN(CCC)C(=O)CSc1nc2ccc3c(c2[nH]1)C(=O)c1ccccc1C3=O [f1-23, 2-(6,11-dioxo-6,11-dihydro-1H-anthra[1,2-d]imidazol-2-ylthio)-N,N-dipropylacetamide] | 80 ± 7 | 82 ± 15 | in this category | 18 ± 0 |  |  |  |  |  | 
16 | COC(=O)/C=C/CSc1nc2ccc3c(c2[nH]1)C(=O)c1ccccc1C3=O [f1-6, (E)-methyl 4-(6,11-dioxo-6,11-dihydro-1H-anthra[1,2-d]imidazol-2-ylthio)but-2-enoate] | 90 ± 6 | 82 ± 7 | in this category | 44 ± 5 |  |  |  |  |  | 
17 | COC(=O)CCCSc1nc2ccc3c(c2[nH]1)C(=O)c1ccccc1C3=O [f1-5, Methyl-(6,11-dioxo-6,11-dihydro-1H-anthra[1,2-d]imidazol-2-ylthio)butanoate] | 92 ± 5 | 70 ± 10 |  | 80 ± 2 |  |  |  |  |  | 
18 | O=C1c2ccccc2C(=O)c2c1ccc1nc(SCCN3CCCCC3)[nH]c21 [f1-12, 2-(2-(Piperidin-1-yl)ethylthio)-1H-anthra[1,2-d]imidazole-6,11-dione] | 22 ± 8 | 6 ± 13 |  | 42 ± 8 |  |  |  |  |  | exhibited inhibition effect against telomerase
19 | O=C1c2ccccc2C(=O)c2c1ccc1nc(SCCC(=O)N3CCCC3)[nH]c21 [f1-22, 2-(3-oxo-3-(pyrrolidin-1-yl)propylthio)-1H-anthra[1,2-d]imidazole-6,11-dione] | 80 ± 3 | 40 ± 15 | in this category | 28 ± 2 |  |  |  |  |  | 
20 | O=C1c2ccccc2C(=O)c2c1ccc1nc(SC(=O)N3CCOCC3)[nH]c21 [f2-2, S-6,11-dioxo-6,11-dihydro-1H-anthra[1,2-d]imidazol-2-yl morpholine-4-carbothioate] | 96 ± 7 | 92 ± 11 |  | 43 ± 2 |  |  |  |  |  | exhibited inhibition effect against telomerase
21 | CCN(CC)C(=O)CCSc1nc2ccc3c(c2[nH]1)C(=O)c1ccccc1C3=O [f1-20, 3-(6,11-dioxo-6,11-dihydro-1H-anthra[1,2-d]imidazol-2-ylthio)-N,N-diethylpropanamide] | 46 ± 2 | 28 ± 11 |  | 30 ± 2 |  |  |  |  |  | 
22 | O=C1c2ccccc2C(=O)c2c1ccc1nc(SCC(=O)N3CCCC3)[nH]c21 [f1-21, 2-(2-oxo-2-(pyrrolidin-1-yl)ethylthio)-1H-anthra[1,2-d]imidazole-6,11-dione] | 63 ± 1 | 30 ± 10 |  | 38 ± 5 |  |  |  |  |  | exhibited inhibition effect against telomerase
23 | O=C1c2ccccc2C(=O)c2c1ccc1nc(SC(=O)N3CCCCC3)[nH]c21 [f2-8, S-6,11-dioxo-6,11-dihydro-1H-anthra[1,2-d]imidazol-2-yl piperidine-1-carbothioate] | 92 ± 3 | 99 ± 25 |  | 100 ± 0 |  |  |  |  |  | 
